The results in this text go back to ChEMBL document CHEMBL3044934, “Design, synthesis, and antiviral evaluation of phenanthrene-based tylophorine derivatives as potential antiviral agents” (2010).

Holding throughout (format): functional
Test [1] deals with Tobacco mosaic virus. Description: Antiviral activity against Tobacco mosaic virus (TMV) inoculated on whole Nicotiana tabacum leaves followed by smearing with 100 ug/mL compound solution on left side of leaves assessed as viral infection curative effect measured 3 to 4 days post viral infection.
In test [2] the test system is Tobacco mosaic virus. Description: Antiviral activity against Tobacco mosaic virus (TMV) inoculated on whole Nicotiana tabacum leaves followed by smearing with 500 ug/mL compound solution on left side of leaves assessed as viral infection curative effect measured 3 to 4 days post viral infection.
Test [3] relates to Tobacco mosaic virus. Description: Antiviral activity against Tobacco mosaic virus (TMV) pre-treated with 100 ug/mL compound for 30 min followed by inoculation on left side of Nicotiana tabacum leaves assessed as virus inactivation effect measured 3 to 4 days post viral infection.
The subject of test [4] is Tobacco mosaic virus. Description: Antiviral activity against Tobacco mosaic virus (TMV) pre-treated with 500 ug/mL compound for 30 min followed by inoculation on left side of Nicotiana tabacum leaves assessed as virus inactivation effect measured 3 to 4 days post viral infection.
Test [5] relates to Tobacco mosaic virus. Description: Antiviral activity against Tobacco mosaic virus (TMV) inoculated on 100 ug/mL compound smeared Nicotiana tabacum leaves assessed as protective effect against viral infection measured 3 to 4 days post viral infection.
Test [6] relates to Tobacco mosaic virus. The test can be described thus: Antiviral activity against Tobacco mosaic virus (TMV) inoculated on 500 ug/mL compound smeared Nicotiana tabacum leaves assessed as protective effect against viral infection measured 3 to 4 days post viral infection.

SMILES strings stand for the structures.

Take `COc1cc2cc(CN3CCC[C@H]3CO)c3cc(OC)c(OC)cc3c2cc1OC`: the Activity in test [1] was 13.4%; in test [2], 34.6%; in test [3], 36.9%; in test [4] it was 74.2%; in test [5] it was 10.4%; in test [6] it was 19.2%.

Turning to `COC(=O)[C@@H]1CCCN1C(=O)c1cc2cc(OC)c(OC)cc2c2cc(OC)c(OC)cc12`, the Activity is given as 10.6% in test [1]; 64.6% in test [2]; 8% in test [3]; 8.4% in test [4]; 19.2% in test [5]; 56.7% in test [6].

As for `COc1cc2cc(CN3CCCCC3C(=O)O)c3cc(OC)c(OC)cc3c2cc1OC` (stereo not drawn), the Activity in test [1] was found to be 28.9%; in test [2] it was 45.1%; in test [3], 38.7%; in test [4] it was 68.9%; in test [5], 10%; in test [6], 12.9%.

As for `COC(=O)C1CCCCN1Cc1cc2cc(OC)c(OC)cc2c2cc(OC)c(OC)cc12` (stereo not drawn), the Activity came out at 1.2% in test [1]; 11.8% in test [2]; 50.2% in test [3]; 59.1% in test [4]; 27.1% in test [5]; 64.6% in test [6].

As to `COC(=O)C1CCCCN1C(=O)c1cc2cc(OC)c(OC)cc2c2cc(OC)c(OC)cc12` (stereo not drawn), the Activity is on record as 4.9% in test [1]; 17.9% in test [2]; 4.4% in test [3]; 17.3% in test [4]; 12.5% in test [5]; 56.3% in test [6].

`COc1cc2cc(CN3CCC[C@H]3C(=O)O)c3cc(OC)c(OC)cc3c2cc1OC`: the Activity in test [1] is reported as 14.2%; in test [2] it was 54.1%; in test [3] it was 21.3%; in test [4] it was 39.6%; in test [5], 23.3%; in test [6], 35.4%.

On to `COC(=O)[C@@H]1CCCN1Cc1cc2cc(OC)c(OC)cc2c2cc(OC)c(OC)cc12`, for which the Activity is on record as 2.9% in test [1]; 33.7% in test [2]; 54.7% in test [3]; 80% in test [4]; 38.3% in test [5]; 47.1% in test [6].

Take `COc1cc2cc(CN3CCCCC3CO)c3cc(OC)c(OC)cc3c2cc1OC` (stereo not drawn): the Activity in test [1] came out at 36.2%; in test [2] it was 46.8%; in test [3] it was 5.2%; in test [4], 8.4%; in test [5], 4.6%; in test [6], 21.3%.

Regarding `COc1cc2cc(CN3CCC(O)CC3)c3cc(OC)c(OC)cc3c2cc1OC`, the Activity in test [1] is on record as 33.7%; in test [2], 37.4%; in test [3], 9.3%; in test [4], 71.1%; in test [5] it was 11.3%; in test [6], 70.8%.

Consider `COC(=O)CCCCCNC(=O)c1cc2cc(OC)c(OC)cc2c2cc(OC)c(OC)cc12`, for which the Activity came out at 48% in test [1]; 65.9% in test [2]; 5.8% in test [3]; 6.7% in test [4]; 14.2% in test [5]; 54.6% in test [6].

Regarding `COc1cc2cc(C(=O)NCCCCCCO)c3cc(OC)c(OC)cc3c2cc1OC`, the Activity in test [1] stood at 49.6%; in test [2] it was 65%; in test [3], 57.8%; in test [4], 60.9%; in test [5], 22.5%; in test [6], 41.7%.

In the case of `CNCC(=O)N[C@@H](CO)C(=O)N[C@H]1[C@H](O)[C@@H](O)[C@H](n2ccc(N)nc2=O)O[C@@H]1C(N)=O` [NINGNANMYCIN], the Activity in test [1] stood at 39%; in test [2], 47.9%; in test [3] it was 48%; in test [4], 68.4%; in test [5], 47.5%; in test [6] it was 48.7%.

For the compound `COc1cc2c3c(c4cc(OC)c(OC)cc4c2cc1OC)CN1CCC[C@@H]1C3` [TYLOPHORINE], the Activity came to 57.7% in test [1]; 65.9% in test [2]; 56.4% in test [3]; 62.6% in test [4]; 37.9% in test [5]; 53.3% in test [6].
